From publication PMC5355235, “FLT3 activating mutations display differential sensitivity to multiple tyrosine kinase inhibitors” (Oncotarget, 2017) come the findings set out here.

Assay [1] deals with BaF3 FLT3 D835N mutant cells. As to the kind of experiment: MTT growth inhibition assay, BaF3 FLT3 D835N cells. It is filed as cell-based. The following applies: no IL-3, 48 h, read-out: Proliferation IC50. The protocol: (§1) Figure 1 Growth of AL mutants in the presence of FLT3 TKI The BaF3 AL mutants were grown in the absence of IL-3 and analyzed by treatment in increasing concentrations of FLT3 TKI for 48 hours, after which growth inhibition was assessed using the MTT assay. Means are representative of at least three independent experiments.
(§2) The cells were grown in the absence of IL3 and analyzed by treatment in increasing concentrations of FLT3 TKI for 48 hours, after which growth inhibition was assessed using the MTT assay. Each experiment was performed at least three times and representative results are shown.
(§3) Based on Trypan Blue exclusion, 2 × 10^4 viable cells were seeded in quadruplicate in a 96-well microtiter plate in the presence or absence of inhibitor for 48 h. The effect of drug activity on cell viability was measured using the 3-(4,5-Dimethylthiazol-2-yl)-2,5-diphenyltetrazolium bromide (MTT) assay according to the manufacturer's instructions (Roche Applied Science, Indianapolis, IN, USA). Following treatment, cells were incubated for 4 h in MTT followed by dissolution in solubilization buffer overnight. Absorbance was measured at 570 nm on a Bio-Rad plate reader (Hercules, CA, USA). […] Results shown are presented as means and are representative of at least three independent experiments.
For orientation: Tetrazolium dyes change colour on reduction, which living cells bring about.

The test system of assay [2] is BaF3 FLT3 D835Y mutant cells. In words: MTT growth inhibition assay, BaF3 FLT3 D835Y cells. Format: cell-based. The conditions noted are these: no IL-3, 48 h, read-out: Proliferation IC50. The procedure: as §1, §2, §3
In a further assay the test system is BaF3/ITD cells. As to the kind of experiment: MTT growth inhibition assay, BaF3 FLT3-ITD cells. It is filed as cell-based. The conditions noted are these: no IL-3, 48 h, read-out: Proliferation IC50. The procedure:
as §1, §2, §3

Assay [3] has as its system BaF3 FLT3 D835A mutant cells. As to the kind of experiment: MTT growth inhibition assay, BaF3 FLT3 D835A cells. It is filed as cell-based. The conditions noted are these: BaF3 FLT3 D835A, no IL-3, 48 h, MTT, read-out: Proliferation IC50. The procedure:
as §1, §2, §3

The test system of assay [4] is BaF3 FLT3 D835G mutant cells. As to the kind of experiment: MTT growth inhibition assay, BaF3 FLT3 D835G cells. Format: cell-based. The conditions noted are these: no IL-3, 48 h, read-out: Proliferation IC50. The protocol: as §1, §2, §3
The test system of assay [5] is BaF3 FLT3 I836T mutant cells. As to the kind of experiment: MTT growth inhibition assay, BaF3 FLT3 I836T cells. Format: cell-based. The conditions noted are these: no IL-3, 48 h, read-out: Proliferation IC50. The procedure:
as §1, §2, §3

Assay [6] concerns BaF3 FLT3 I836L+D mutant cells. As to the kind of experiment: MTT growth inhibition assay, BaF3 FLT3 I836L+D cells. The following applies: no IL-3, 48 h, read-out: Proliferation IC50. It is filed as cell-based. The protocol: as §1, §2, §3
Assay [7] relates to BaF3 FLT3 840G+S mutant cells. In words: MTT growth inhibition assay, BaF3 FLT3 840G+S cells. It is filed as cell-based. The following applies: no IL-3, 48 h, read-out: Proliferation IC50. The protocol: as §1, §2, §3
For assay [8], the system named is BaF3 FLT3 D593D mutant cells. As to the kind of experiment: MTT growth inhibition assay, BaF3 FLT3 D593D cells. The conditions noted are these: no IL-3, 48 h, read-out: Proliferation IC50. Format: cell-based. The procedure: as §1, §2, §3
Assay [9] concerns BaF3 FLT3 I836S mutant cells. In words: MTT growth inhibition assay, BaF3 FLT3 I836S cells. Format: cell-based. The conditions noted are these: BaF3 FLT3 I836S, no IL-3, 48 h, MTT, read-out: Proliferation IC50. The procedure:
as §1, §2, §3

The subject of assay [10] is BaF3 FLT3 D835L+K mutant cells. As to the kind of experiment: MTT growth inhibition assay, BaF3 FLT3 D835L+K cells. It is filed as cell-based. The following applies: no IL-3, 48 h, read-out: Proliferation IC50. The protocol:
as §1, §2, §3

Another assay concerns FLT3/ITD. In words: FLT3/ITD autophosphorylation and signaling pathways, Western blot. The conditions noted are these: FLT3/ITD cells, 1 h, concentration-dependent. It is filed as cell-based. The procedure: (§4) Activated FLT3 expression was measured by performing immunoprecipitation, SDS-PAGE and Western blotting as previously described. Specifically, 10^7 cells were washed in medium and treated with inhibitor for 1 h followed by stimulation with 25 ng/ml of FLT3 ligand for 15 minutes where indicated. Cells were washed twice with ice-cold PBS and lysed in 300 µl of NP-40 lysis buffer (150 mM NaCl, 20 mM TrisHCl (pH7.4), 10% glycerol, 1% NP-40, 10 mM EDTA, 100 mM NaF) with 2 mM Na3VO4 and protease inhibitors (Complete Tablets, Roche, Mannheim, Germany) at 4°C for 30 m. Cell lysate was harvested by centrifugation at 13,000 × g for 30 m at 4°C. FLT3 S-18 antibody was incubated with 500 µg lysate overnight at 4°C followed by immunoprecipitation with protein A-agarose beads for 2 h. Beads were washed once in Tris buffered saline with 1% Tween-20 (TBST) and twice in TBS. Samples were boiled in sodium dodecyl sulfate (SDS) sample buffer prior to separating in a 8% SDS-polyacrylamide gel (SDS-PAGE). Proteins were transferred to a polyvinyl diflouride (PVDF) membrane (Millipore, Bedford, MA, USA) and detected by 4G10 phosphotyrosine antibody and anti-FLT3 S-18 antibody. FLT3 was visualized using the Odyssey Infra Red Imaging System from Li-Cor (Lincoln, NE, USA) using AlexaFluor 680 goat anti-mouse and AlexaFluor 800 goat anti-rabbit antibodies. Phosphorylation of the FLT3 downstream signaling mediators, STAT5, AKT and MAP kinase was investigated by loading 50 µg of whole cell lysate and probing with the indicated antibodies. The membrane was washed and incubated in goat anti-rabbit secondary antibody conjugated to horseradish peroxidase followed by enhanced chemiluminescence (ECL). The membrane was subsequently stripped in 200 mM glycine buffer, pH 2.5 with 0.1% Tween-20 and reprobed for STAT5, AKT and MAP kinase expression using the respective antibodies.

The target of another assay is T1, FLT3 D835Y (Homo sapiens, UniProt P36888, D835Y).
T1 construct: expressed in transfected cells; host or cells: BaF3
T1 sequence (P36888 27-993 D835Y): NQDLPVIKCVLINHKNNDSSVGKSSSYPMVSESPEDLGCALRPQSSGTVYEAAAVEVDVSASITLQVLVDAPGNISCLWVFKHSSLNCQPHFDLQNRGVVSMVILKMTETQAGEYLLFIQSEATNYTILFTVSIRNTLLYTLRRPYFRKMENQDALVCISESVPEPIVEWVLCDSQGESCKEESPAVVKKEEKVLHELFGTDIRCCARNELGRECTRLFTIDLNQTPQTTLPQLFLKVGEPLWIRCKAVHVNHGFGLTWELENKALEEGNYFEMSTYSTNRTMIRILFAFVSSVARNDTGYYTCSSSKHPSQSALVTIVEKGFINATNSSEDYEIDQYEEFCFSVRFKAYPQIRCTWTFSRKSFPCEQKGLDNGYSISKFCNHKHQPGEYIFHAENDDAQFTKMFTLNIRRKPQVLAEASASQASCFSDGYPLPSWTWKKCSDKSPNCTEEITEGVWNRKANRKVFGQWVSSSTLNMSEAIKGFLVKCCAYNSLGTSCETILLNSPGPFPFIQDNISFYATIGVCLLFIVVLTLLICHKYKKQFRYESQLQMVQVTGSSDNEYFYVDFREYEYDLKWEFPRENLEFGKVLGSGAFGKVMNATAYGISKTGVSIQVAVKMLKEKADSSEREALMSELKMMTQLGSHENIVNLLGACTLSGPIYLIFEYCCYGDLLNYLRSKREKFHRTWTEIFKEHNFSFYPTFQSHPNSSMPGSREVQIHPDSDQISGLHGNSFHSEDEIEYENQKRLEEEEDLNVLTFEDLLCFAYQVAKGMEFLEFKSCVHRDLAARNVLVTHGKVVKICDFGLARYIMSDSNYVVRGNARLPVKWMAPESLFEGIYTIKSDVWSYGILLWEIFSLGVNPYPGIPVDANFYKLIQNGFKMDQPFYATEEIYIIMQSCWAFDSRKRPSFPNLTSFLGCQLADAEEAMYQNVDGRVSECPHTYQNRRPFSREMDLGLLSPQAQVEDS
As to the kind of experiment: FLT3 autophosphorylation, immunoprecipitation/Western blot, D835Y. Format: cell-based. The conditions noted are these: FLT3 D835Y cells, highest concentrations tested, 1 h. The protocol: as §4, with “Phosphorylation of the FLT3 downstream signaling mediators, STAT5, AKT and MAP kinase was investigated by loading 50 µg of whole cell lysate and probing with the indicated antibodies. The membrane was washed and incubated in goat anti-rabbit secondary antibody conjugated to horseradish peroxidase followed by enhanced chemiluminescence (ECL). The membrane was subsequently stripped in 200 mM glycine buffer, pH 2.5 with 0.1% Tween-20 and reprobed for STAT5, AKT and MAP kinase expression using the respective antibodies.” left out
A general note: A western blot detects proteins with antibodies after separation by electrophoresis.

The next assay has as its system BaF3 FLT3 D835Y cells. In words: Engraftment of BaF3 D835Y luciferase cells in BALB/c mice, bioluminescence imaging. Format: in vivo. The conditions noted are these: 10 mg/kg once daily oral gavage, day 5 to day 9. The procedure:
On day 5 following transplantation, the level of engraftment was assessed by imaging mice for bioluminescence on an IVIS Spectrum imager. […] This experiment was repeated three times.
Cells were sorted for GFP and CD135 expression on a FACS AriaII cytometer using FACSDiva software. For engraftment, 2 ×10^6 cells were injected via tail vein into BALB/c mice (Jackson Laboratories, Bar Harbor, ME, USA) (day 0). […] [36, 37] […] Mice were imaged by intraperitoneal injection of luciferin (3 mg) and visualizing on an IVIS Spectrum imager (Caliper LifeSciences, Hopkinton, MA, USA) using Living Image software for analysis on day 5 following inoculation to monitor engraftment and on day 9 to assess drug effect. All animal procedures were conducted in accordance with the policy of the Johns Hopkins University School of Medicine Animal Care and Use Committee.

Where two headings read alike, the source gives them in different places.

`COc1cc(Nc2ncc(F)c(Nc3ccc4c(n3)NC(=O)C(C)(C)O4)n2)cc(OC)c1OC` [R406]: the IC50 in [1] was 153 nM; in assay [2], more than 200 nM; in the assay with BaF3/ITD cells it was 166 nM; in [3], more than 200 nM; in [4], 141 nM; in assay [5], 152 nM. Moreover, the IC50 in assay [6], in assay [7], in assay [8], in [9] and in assay [10] was more than 200 nM in each case.
Take `CNC(=O)c1cc(Oc2ccc(NC(=O)Nc3ccc(Cl)c(C(F)(F)F)c3)cc2)ccn1` [Sorafenib]: the IC50 in assay [1] (Mus musculus) is 31.6 nM; in [2] (Mus musculus) it was more than 2000 nM; in the assay on BaF3/ITD cells (Mus musculus) it was 18.5 nM; in [3] (Mus musculus), more than 200 nM; in [4] (Mus musculus) it was 34.5 nM; in [5] (Mus musculus), 48.2 nM. The IC50 in assay [6] (Mus musculus) was more than 200 nM; in assay [7] (Mus musculus), 5 nM; in assay [8] (Mus musculus), more than 200 nM; in assay [9] (Mus musculus), 10.2 nM; in assay [10] (Mus musculus), more than 200 nM. The “Inhibition of FLT3 autophosphorylation and phosphorylation of STAT5, AKT and Map kinase” value in the assay with FLT3/ITD is listed as “inhibited FLT3 autophosphorylation”. The “Inhibition of FLT3 autophosphorylation” value on FLT3 D835Y is “markedly reduced or absent inhibition”. In addition, the “Leukemic burden (bioluminescence) on day 9” value in the assay on BaF3 FLT3 D835Y cells is listed as “clear progression of leukemia”.
`CCN(CC)CCNC(=O)c1c(C)[nH]c(/C=C2\C(=O)Nc3ccc(F)cc32)c1C` [Sunitinib]: the IC50 in assay [1] (Mus musculus) is 46.4 nM; in assay [2] (Mus musculus), more than 100 nM; in the assay with BaF3/ITD cells (Mus musculus) it was 5.4 nM; in assay [3] (Mus musculus) it was more than 200 nM; in assay [4] (Mus musculus), 48.1 nM; in [6] (Mus musculus), more than 200 nM. For the same compound, the IC50 is 4 nM in [7] (Mus musculus), more than 200 nM in [8] (Mus musculus), more than 200 nM in [9] (Mus musculus) and more than 200 nM in assay [10] (Mus musculus).
For `CNC(=O)[C@@]1(N)C[C@H]2O[C@]1(C)n1c3ccccc3c3c4c(c5c6ccccc6n2c5c31)C(=O)NC4` [TTT-3002], the IC50 in assay [1] is less than 1 nM; in [2], 4.1 nM; in the assay with BaF3/ITD cells it was less than 1 nM; in [3], 1.3 nM; in assay [4], less than 1 nM; in assay [5] it was 9.7 nM. For the same compound, the IC50 in [6] is 11.7 nM; in assay [7], less than 1 nM; in assay [8], 2.8 nM; in assay [9], 9 nM; in [10] it was 6.7 nM.
